According to US20030092757A1, “Favorable modulation of health-related quality of life and health-related quality-adjusted time-to-progression of disease in patients with prostate cancer” (priority 2001, published 2003):

Test system: patients having hormone refractory prostate cancer (HRPCa)
Experiment: Health-related quality-adjusted time-to-progression (QATTP) of disease, Kaplan-Meier product limit analysis, randomized placebo-controlled study
Assay type: in vivo, human
Description: The health-related QATTP of disease model for this invention expresses progression-free time as an equally preferable amount of time spent in full health. This is achieved by using patient-reported health-related QoL, as measured for the duration of observation or progression-free interval, to weight progression-free time. […] Patients received treatment with 10 mg (N=89) or 2.5 mg (N=95) of atrasentan or placebo (N=104) until experiencing a clinical event indicative of disease progression such as palliative opiate treatment of new bone or visceral pain, palliative radiation treatment of new bone pain, or new tumor growth symptoms requiring intervention or treatment with chemotherapy. Patient-reported health-related QoL data were collected with the EORTC QLQ-30 and the FACT-G and FACT-P, both of which were administered at baseline, at six week intervals and at each patient's final visit. The results from the 10 mg and 2.5 mg treatment groups are reported relative to the placebo group. A patient's transformed domain score and total score from both the EORTC QLQ-30 and FACT were used to weight the time-to-progression outcome data. Transformed domain scores ranged between 0 and 1, so the reported health-related QATTP of disease outcome was never larger than the actual time-to-progression. Each patient's health-related QATTP of disease was computed as the sum of the health-related QoL weights multiplied by the duration for which that patient experienced that health-related QoL. If a patient experienced a clinical event between two health-related QoL assessments, the set of health-related QoL domain scores immediately prior to the event were carried forward to the time of the clinical event. The mean and median health-related QATTP of disease outcomes were then estimated using Kaplan-Meier product limit methodology (Journal of the American Statistical Association, vol. 53, 1958, pp 457-481). The area under a Kaplan-Meier survival curve conveys an estimated mean health-related QATTP of disease. This analysis was applied to both intent-to-treat and per protocol population data. All health-related QATTP of disease comparisons between atrasentan and placebo treatment groups were based on a log-rank test with statistical significance at an α of 0.05. Results of the Kaplan-Meier product limit survival method analysis are reported in TABLE 2 (Intent to Treat) and TABLE 3 (Per Protocol Population). Mean and median health-related QATTP of disease are shown by treatment group. Log-rank tests comparing the differences between treatment groups are also reported.

[1] = EORTC Appetite Loss, 2.5 mg, intent to treat
[2] = EORTC Appetite Loss, 2.5 mg, per protocol
[3] = EORTC Appetite Loss, 10 mg, intent to treat
[4] = EORTC Appetite Loss, 10 mg, per protocol
[5] = EORTC Cognitive Functioning, 2.5 mg, intent to treat
[6] = EORTC Cognitive Functioning, 2.5 mg, per protocol
[7] = EORTC Cognitive Functioning, 10 mg, intent to treat
[8] = EORTC Cognitive Functioning, 10 mg, per protocol
[9] = EORTC Constipation, 2.5 mg, intent to treat
[10] = EORTC Constipation, 2.5 mg, per protocol
[11] = EORTC Constipation, 10 mg, intent to treat
[12] = EORTC Constipation, 10 mg, per protocol
[13] = EORTC Diarrhea, 2.5 mg, intent to treat
[14] = EORTC Diarrhea, 2.5 mg, per protocol
[15] = EORTC Diarrhea, 10 mg, intent to treat
[16] = EORTC Diarrhea, 10 mg, per protocol
[17] = EORTC Dyspnea, 2.5 mg, intent to treat
[18] = EORTC Dyspnea, 2.5 mg, per protocol
[19] = EORTC Dyspnea, 10 mg, intent to treat
[20] = EORTC Dyspnea, 10 mg, per protocol
[21] = EORTC Emotional Functioning, 2.5 mg, intent to treat
[22] = EORTC Emotional Functioning, 2.5 mg, per protocol
[23] = EORTC Emotional Functioning, 10 mg, intent to treat
[24] = EORTC Emotional Functioning, 10 mg, per protocol
[25] = EORTC Fatigue, 2.5 mg, intent to treat
[26] = EORTC Fatigue, 2.5 mg, per protocol
[27] = EORTC Fatigue, 10 mg, intent to treat
[28] = EORTC Fatigue, 10 mg, per protocol
[29] = EORTC Global Score, 2.5 mg, intent to treat
[30] = EORTC Global Score, 2.5 mg, per protocol
[31] = EORTC Global Score, 10 mg, intent to treat
[32] = EORTC Global Score, 10 mg, per protocol
[33] = EORTC Nausea & Vomiting, 2.5 mg, intent to treat
[34] = EORTC Nausea & Vomiting, 2.5 mg, per protocol
[35] = EORTC Nausea & Vomiting, 10 mg, intent to treat
[36] = EORTC Nausea & Vomiting, 10 mg, per protocol
[37] = EORTC Pain, 2.5 mg, intent to treat
[38] = EORTC Pain, 2.5 mg, per protocol
[39] = EORTC Pain, 10 mg, intent to treat
[40] = EORTC Pain, 10 mg, per protocol
[41] = EORTC Physical Functioning, 2.5 mg, intent to treat

CCCCN(CCCC)C(=O)CN1C[C@H](c2ccc3c(c2)OCO3)[C@@H](C(=O)O)[C@@H]1c1ccc(OC)cc1 [atrasentan, (2R,3R,4S)-2-(4-methoxyphenyl)-4-(1,3-benzodioxol-5-yl)-1-(((N,N-dibutylamino)carbonyl)methyl)pyrrolidine-3-carboxylic acid]
log rank tests of mean health-related QATTP of disease (2.5 mg, all health-related QoL domains except dyspnea and functional well-being): statistically significant
mean health-related QATTP of disease (2.5 mg, data in TABLE 2 (so in the source)): longer
difference in health-related QATTP between the atrasentan treatment groups (10 mg vs 2.5 mg, any health-related QoL domain): no statistical differences
mean health-related QATTP's of disease (10 mg, data in TABLE 2 (so in the source), all health-related QoL domains except dyspnea, global score, emotional well-being, social well-being, p<0.05): significantly longer
mean health-related QATTP of disease, trend (10 mg, dyspnea, global score, emotional well-being, social well-being domains, p<0.10): trend favored
QATTP of Disease Mean [1]: 186 days
QATTP of Disease Median [1]: 151 days
QATTP of Disease Mean [2]: 196 days
QATTP of Disease Median [2]: 162 days
QATTP of Disease Mean [3]: 175 days
QATTP of Disease Median [3]: 146 days
QATTP of Disease Mean [4]: 179 days
QATTP of Disease Median [4]: 146 days
QATTP of Disease Mean [5]: 180 days
QATTP of Disease Median [5]: 151 days
QATTP of Disease Mean [6]: 190 days
QATTP of Disease Median [6]: 156 days
QATTP of Disease Mean [7]: 163 days
QATTP of Disease Median [7]: 138 days
QATTP of Disease Mean [8]: 159 days
QATTP of Disease Median [8]: 144 days
QATTP of Disease Mean [9]: 180 days
QATTP of Disease Median [9]: 142 days
QATTP of Disease Mean [10]: 190 days
QATTP of Disease Median [10]: 151 days
QATTP of Disease Mean [11]: 189 days
QATTP of Disease Median [11]: 132 days
QATTP of Disease Mean [12]: 198 days
QATTP of Disease Median [12]: 141 days
QATTP of Disease Mean [13]: 198 days
QATTP of Disease Median [13]: 178 days
QATTP of Disease Mean [14]: 209 days
QATTP of Disease Median [14]: 184 days
QATTP of Disease Mean [15]: 185 days
QATTP of Disease Median [15]: 176 days
QATTP of Disease Mean [16]: 188 days
QATTP of Disease Median [16]: 184 days
QATTP of Disease Mean [17]: 173 days
QATTP of Disease Median [17]: 141 days
QATTP of Disease Mean [18]: 180 days
QATTP of Disease Median [18]: 142 days
QATTP of Disease Mean [19]: 177 days
QATTP of Disease Median [19]: 123 days
QATTP of Disease Mean [20]: 182 days
QATTP of Disease Median [20]: 132 days
QATTP of Disease Mean [21]: 177 days
QATTP of Disease Median [21]: 133 days
QATTP of Disease Mean [22]: 186 days
QATTP of Disease Median [22]: 143 days
QATTP of Disease Mean [23]: 167 days
QATTP of Disease Median [23]: 125 days
QATTP of Disease Mean [24]: 169 days
QATTP of Disease Median [24]: 134 days
QATTP of Disease Mean [25]: 165 days
QATTP of Disease Median [25]: 109 days
QATTP of Disease Mean [26]: 174 days
QATTP of Disease Median [26]: 127 days
QATTP of Disease Mean [27]: 153 days
QATTP of Disease Median [27]: 104 days
QATTP of Disease Mean [28]: 158 days
QATTP of Disease Median [28]: 111 days
QATTP of Disease Mean [29]: 159 days
QATTP of Disease Median [29]: 104 days
QATTP of Disease Mean [30]: 167 days
QATTP of Disease Median [30]: 124 days
QATTP of Disease Mean [31]: 141 days
QATTP of Disease Median [31]: 103 days
QATTP of Disease Mean [32]: 145 days
QATTP of Disease Median [32]: 106 days
QATTP of Disease Mean [33]: 195 days
QATTP of Disease Median [33]: 162 days
QATTP of Disease Mean [34]: 206 days
QATTP of Disease Median [34]: 178 days
QATTP of Disease Mean [35]: 201 days
QATTP of Disease Median [35]: 156 days
QATTP of Disease Mean [36]: 207 days
QATTP of Disease Median [36]: 168 days
QATTP of Disease Mean [37]: 179 days
QATTP of Disease Median [37]: 133 days
QATTP of Disease Mean [38]: 188 days
QATTP of Disease Median [38]: 142 days
QATTP of Disease Mean [39]: 172 days
QATTP of Disease Median [39]: 127 days
QATTP of Disease Mean [40]: 178 days
QATTP of Disease Median [40]: 137 days
QATTP of Disease Mean [41]: 172 days
QATTP of Disease Median [41]: 118 days
QATTP of Disease Mean (EORTC Physical Functioning, 2.5 mg, per protocol): 181 days
